Source: patent US20250326749A1, “COMPOUNDS, COMPOSITIONS, AND METHODS OF USING THEREOF” (Sionna Therapeutics Inc., priority 2022, published 2025)

biological target: T1, ΔF508-CFTR (Homo sapiens, UniProt P13569, DEL508-508); test: ΔF508-CFTR-HRP trafficking assay (cell surface expression of ΔF508-CFTR); format: cell-based; settings: CFSMEo- cells transiently transfected with ΔF508-CFTR-HRP; test agent 3 μM, 48 h; HRP chemiluminescence
T1 construct: expressed in transfected cells; host or cells: CFSMEo- (human CF submucosal gland epithelial cells, ΔF508/Q2X), transiently transfected by nucleofection
Summary of the method: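 Surface-expressed ΔF508-CFTR measured via extracellular HRP tag: cell-impermeable chemiluminescent substrate, 5 min, signal normalized to 0.3% DMSO vehicle.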

T1 sequence (P13569 with tags, fused parts or gaps DEL508-508): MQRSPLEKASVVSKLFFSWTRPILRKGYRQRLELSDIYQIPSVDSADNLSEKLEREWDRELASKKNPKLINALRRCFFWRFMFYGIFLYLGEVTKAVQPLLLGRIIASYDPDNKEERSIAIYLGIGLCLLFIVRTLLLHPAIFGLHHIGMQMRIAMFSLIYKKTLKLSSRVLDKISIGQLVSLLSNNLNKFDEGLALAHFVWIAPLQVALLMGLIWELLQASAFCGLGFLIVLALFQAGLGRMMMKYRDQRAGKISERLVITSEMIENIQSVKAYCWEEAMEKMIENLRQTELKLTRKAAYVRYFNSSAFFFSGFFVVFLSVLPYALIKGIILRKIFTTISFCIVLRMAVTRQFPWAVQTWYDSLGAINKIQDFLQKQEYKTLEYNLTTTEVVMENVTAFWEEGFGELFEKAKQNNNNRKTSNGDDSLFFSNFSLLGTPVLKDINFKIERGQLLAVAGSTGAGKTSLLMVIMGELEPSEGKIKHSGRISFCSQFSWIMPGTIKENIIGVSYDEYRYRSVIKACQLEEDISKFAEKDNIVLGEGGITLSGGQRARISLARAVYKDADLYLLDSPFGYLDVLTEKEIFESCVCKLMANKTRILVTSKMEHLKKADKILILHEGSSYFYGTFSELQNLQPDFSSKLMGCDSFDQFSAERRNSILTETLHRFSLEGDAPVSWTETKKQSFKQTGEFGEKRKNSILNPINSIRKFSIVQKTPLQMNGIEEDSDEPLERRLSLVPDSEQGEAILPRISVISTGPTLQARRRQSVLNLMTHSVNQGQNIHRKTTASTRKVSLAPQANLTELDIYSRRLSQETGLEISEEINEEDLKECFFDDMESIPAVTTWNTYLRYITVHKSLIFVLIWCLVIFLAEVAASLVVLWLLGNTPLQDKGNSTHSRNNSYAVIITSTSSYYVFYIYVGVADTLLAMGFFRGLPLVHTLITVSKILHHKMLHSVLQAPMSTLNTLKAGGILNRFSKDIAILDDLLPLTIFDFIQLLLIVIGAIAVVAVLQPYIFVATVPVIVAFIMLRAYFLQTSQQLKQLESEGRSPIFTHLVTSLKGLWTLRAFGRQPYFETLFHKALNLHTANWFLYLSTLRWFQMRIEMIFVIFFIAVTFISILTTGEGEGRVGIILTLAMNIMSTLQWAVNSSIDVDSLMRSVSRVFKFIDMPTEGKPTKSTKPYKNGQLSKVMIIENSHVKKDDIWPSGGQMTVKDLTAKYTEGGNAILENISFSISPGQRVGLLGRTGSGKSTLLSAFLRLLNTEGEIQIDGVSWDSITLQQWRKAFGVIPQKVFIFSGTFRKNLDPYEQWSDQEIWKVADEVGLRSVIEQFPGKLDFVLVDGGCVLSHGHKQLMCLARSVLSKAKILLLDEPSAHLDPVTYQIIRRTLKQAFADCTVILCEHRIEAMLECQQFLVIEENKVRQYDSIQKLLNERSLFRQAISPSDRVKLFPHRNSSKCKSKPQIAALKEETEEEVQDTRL

Row | SMILES | RLUs: ΔF508-CFTR-HRP trafficking data normalized to the vehicle treated control (0.3% DMSO)
1 | C[C@H](Oc1cnnc(-n2nc(C(F)(F)F)c3c2[C@@H](Oc2ccc(C(=O)O)cc2)CCC3)c1)c1ccc2c(c1)OC(F)(F)O2 (single isomer, unassigned) [Example 36h] | B (RLU 3.5 μM-5.0 μM)
2 | C[C@H](Oc1cc(-n2nc(C(F)(F)F)c3c2[C@@H](Oc2ccc(C(=O)O)cc2)CCC3)ncc1F)c1ccc2c(c1)OC(F)(F)O2 (single isomer, unassigned) [Example 36i] | A (RLU 5.0 μM-10 μM)
3 | C[C@H](Oc1cc(-n2nc(C(F)(F)F)c3c2[C@@H](Oc2ccc(C(=O)O)cc2)CCC3)ccc1F)c1cc2c(cc1F)OC(F)(F)O2 (single isomer, unassigned) [Example 36j] | C (RLU 0.0 μM-3.5 μM)
4 | CC[C@H](Oc1cc(-n2nc(C(F)(F)F)c3c2[C@@H](Oc2ccc(C(=O)O)cc2)CCC3)ccn1)c1ccc2c(c1)OC(F)(F)O2 (single isomer, unassigned) [Example 36k] | C (RLU 0.0 μM-3.5 μM)
5 | C[C@H](Oc1cccc(-n2nc(C(F)(F)F)c3c2[C@@H](Oc2ccc(C(=O)O)cc2)CCC3)n1)c1cc2c(cc1F)OC(F)(F)O2 (single isomer, unassigned) [Example 36l] | A (RLU 5.0 μM-10 μM)
6 | C[C@H](Oc1nc(-n2nc(C(F)(F)F)c3c2[C@@H](Oc2ccc(C(=O)O)cc2)CCC3)ccc1F)c1cc2c(cc1F)OC(F)(F)O2 (single isomer, unassigned) [Example 36m] | A (RLU 5.0 μM-10 μM)
7 | C[C@H](Oc1cccc(-n2nc(C(F)(F)F)c3c2C(OC24CC(C(=O)O)(C2)C4)CCC3)c1)c1ccc2c(c1)OC(F)(F)O2 (single isomer, unassigned) [Example 42] | A (RLU 5.0 μM-10 μM)
8 | C[C@@H](Oc1cc(-n2nc(C(F)(F)F)c3c2C(O[C@H]2CC[C@H](C(=O)O)CC2)CCC3)ccn1)c1ccc2c(c1)OC(F)(F)O2 (single isomer, unassigned) [Example 43] | A (RLU 5.0 μM-10 μM)
9 | C[C@H](Oc1cc(-n2nc(C(F)(F)F)c3c2C(O[C@H]2CC[C@H](C(=O)O)CC2)CCC3)ccn1)c1ccc2c(c1)OC(F)(F)O2 (single isomer, unassigned) [Example 44] | A (RLU 5.0 μM-10 μM)
10 | C[C@@H](Oc1cc(-n2nc(C(F)(F)F)c3c2C(O[C@H]2CC[C@H](C(=O)O)CC2)CCC3)ccn1)c1cc2c(cn1)OC(F)(F)O2 (single isomer, unassigned) [Example 47] | B (RLU 3.5 μM-5.0 μM)
11 | C[C@H](Oc1cc(-n2nc(C(F)(F)F)c3c2C(O[C@H]2CC[C@H](C(=O)O)CC2)CCC3)ccn1)c1cc2c(cn1)OC(F)(F)O2 (single isomer, unassigned) [Example 48] | C (RLU 0.0 μM-3.5 μM)
12 | C[C@H](Oc1cc(-n2nc(C(F)(F)F)c3c2[C@@H](O[C@H]2CC[C@H](C(=O)O)CC2)CCC3)cnn1)c1ccc2c(c1)OC(F)(F)O2 (single isomer, unassigned) [Example 55] | C (RLU 0.0 μM-3.5 μM)
13 | C[C@H](Oc1cc(-n2nc(C(F)(F)F)c3c2[C@H](O[C@H]2CC[C@H](C(=O)O)CC2)CCC3)cnn1)c1ccc2c(c1)OC(F)(F)O2 (single isomer, unassigned) [Example 56] | B (RLU 3.5 μM-5.0 μM)
14 | C[C@H](Oc1cncc(-n2nc(C(F)(F)F)c3c2[C@@H](OC24CCC(C(=O)O)(CC2)CC4)CCC3)c1)c1ccc2c(c1)OC(F)(F)O2 (single isomer, unassigned) [Example 57] | B (RLU 3.5 μM-5.0 μM)
15 | C[C@H](Oc1cncc(-n2nc(C(F)(F)F)c3c2[C@H](OC24CCC(C(=O)O)(CC2)CC4)CCC3)c1)c1ccc2c(c1)OC(F)(F)O2 (single isomer, unassigned) [Example 58] | B (RLU 3.5 μM-5.0 μM)
16 | C[C@H](Oc1cc(-n2nc(C(F)(F)F)c3c2[C@@H](OC24CCC(C(=O)O)(CC2)CC4)CCC3)cnc1F)c1ccc2c(c1)OC(F)(F)O2 (single isomer, unassigned) [Example 59] | C (RLU 0.0 μM-3.5 μM)
17 | C[C@H](Oc1cc(-n2nc(C(F)(F)F)c3c2[C@H](OC24CCC(C(=O)O)(CC2)CC4)CCC3)cnc1F)c1ccc2c(c1)OC(F)(F)O2 (single isomer, unassigned) [Example 60] | C (RLU 0.0 μM-3.5 μM)
18 | C[C@H](Oc1cc(-n2nc(C(F)(F)F)c3c2[C@@H](Oc2ccc(C(=O)O)cc2)CCC3)cnn1)c1ccc2c(c1)OC(F)(F)O2 (single isomer, unassigned) [Example 61] | C (RLU 0.0 μM-3.5 μM)

Row | SMILES | RLUs: ΔF508-CFTR-HRP trafficking data normalized to the vehicle treated control (0.3% DMSO)
19 | C[C@H](Oc1cc(-n2nc(C(F)(F)F)c3c2[C@@H](OC24CC(C(=O)O)(C2)C4)CCC3)cnn1)c1ccc2c(c1)OC(F)(F)O2 (single isomer, unassigned) [Example 62] | C (RLU 0.0 μM-3.5 μM)
20 | C[C@H](Oc1cc(-n2nc(C(F)(F)F)c3c2[C@H](OC24CC(C(=O)O)(C2)C4)CCC3)cnn1)c1ccc2c(c1)OC(F)(F)O2 (single isomer, unassigned) [Example 63] | B (RLU 3.5 μM-5.0 μM)
21 | C[C@H](Oc1cc(-n2nc(C(F)(F)F)c3c2[C@@H](OC24CCC(C(=O)O)(CC2)CC4)CCC3)ccn1)c1ccc2c(c1)OC(F)(F)O2 (single isomer, unassigned) [Example 64] | A (RLU 5.0 μM-10 μM)
22 | C[C@H](Oc1cc(-n2nc(C(F)(F)F)c3c2[C@H](OC24CCC(C(=O)O)(CC2)CC4)CCC3)ccn1)c1ccc2c(c1)OC(F)(F)O2 (single isomer, unassigned) [Example 65] | C (RLU 0.0 μM-3.5 μM)
23 | C[C@H](Oc1cncc(-n2nc(C(F)(F)F)c3c2[C@@H](O[C@H]2CC[C@H](C(=O)O)CC2)CCC3)c1)c1ccc2c(c1)OC(F)(F)O2 (single isomer, unassigned) [Example 66] | A (RLU 5.0 μM-10 μM)
24 | C[C@H](Oc1cncc(-n2nc(C(F)(F)F)c3c2[C@H](O[C@H]2CC[C@H](C(=O)O)CC2)CCC3)c1)c1ccc2c(c1)OC(F)(F)O2 (single isomer, unassigned) [Example 67] | A (RLU 5.0 μM-10 μM)
25 | C[C@H](Oc1cc(-n2nc(C(F)(F)F)c3c2[C@@H](Oc2ccc(C(=O)O)cc2)CCC3)cnc1F)c1ccc2c(c1)OC(F)(F)O2 (single isomer, unassigned) [Example 68] | C (RLU 0.0 μM-3.5 μM)
26 | C[C@H](Nc1cc(-n2nc(C(F)(F)F)c3c2[C@@H](Oc2ccc(C(=O)O)cc2)CCC3)ccn1)c1ccc2c(c1)OC(F)(F)O2 (single isomer, unassigned) [Example 87] | A (RLU 5.0 μM-10 μM)
27 | CC[C@H](Nc1cc(-n2nc(C(F)(F)F)c3c2[C@@H](Oc2ccc(C(=O)O)cc2)CCC3)ccn1)c1ccc2c(c1)OC(F)(F)O2 (single isomer, unassigned) [Example 88] | C (RLU 0.0 μM-3.5 μM)
28 | CC(C)[C@H](Nc1cc(-n2nc(C(F)(F)F)c3c2[C@@H](Oc2ccc(C(=O)O)cc2)CCC3)ccn1)c1ccc2c(c1)OC(F)(F)O2 (single isomer, unassigned) [Example 89] | C (RLU 0.0 μM-3.5 μM)
29 | O=C(O)c1ccc(O[C@H]2CCCc3c(C(F)(F)F)nn(-c4ccnc(N[C@H](c5ccc6c(c5)OC(F)(F)O6)C5CC5)c4)c32)cc1 (single isomer, unassigned) [Example 90] | C (RLU 0.0 μM-3.5 μM)
30 | C[C@H](Nc1cccc(-n2nc(C(F)(F)F)c3c2[C@@H](Oc2ccc(C(=O)O)cc2)CCC3)n1)c1ccc2c(c1)OC(F)(F)O2 (single isomer, unassigned) [Example 91] | A (RLU 5.0 μM-10 μM)
31 | C[C@H](Nc1nc(-n2nc(C(F)(F)F)c3c2[C@@H](Oc2ccc(C(=O)O)cc2)CCC3)ccc1F)c1ccc2c(c1)OC(F)(F)O2 (single isomer, unassigned) [Example 92] | B (RLU 3.5 μM-5.0 μM)
32 | C[C@H](Nc1cc(-n2nc(C(F)(F)F)c3c2[C@@H](Nc2ccc(C(=O)O)cc2)CCC3)ccn1)c1ccc2c(c1)OC(F)(F)O2 (single isomer, unassigned) [Example 93] | A (RLU 5.0 μM-10 μM)
33 | C[C@H](Nc1cc(-n2nc(C(F)(F)F)c3c2[C@@H](OC24CC(C(=O)O)(C2)C4)CCC3)ccc1F)c1ccc2c(c1)OC(F)(F)O2 (single isomer, unassigned) [Example 95 (P1)] | C (RLU 0.0 μM-3.5 μM)
34 | C[C@H](Oc1cc(-n2nc(C#N)c3c2[C@@H](Oc2ccc(C(=O)O)cc2)CCC3)ccc1F)c1ccc2c(c1)OC(F)(F)O2 (single isomer, unassigned) [Example 104] | B (RLU 3.5 μM-5.0 μM)
35 | C[C@H](Oc1cc(-n2nc(C(F)(F)F)c3c2[C@@H](Nc2ccc(C(=O)O)cc2)CCC3)ccn1)c1ccc2c(c1)OC(F)(F)O2 (single isomer, unassigned) [Example 109] | A (RLU 5.0 μM-10 μM)
36 | C[C@H](Oc1cc(-n2nc(C(F)(F)F)c3c2[C@@H](Nc2ccc(C(=O)O)cc2)CCC3)ccn1)c1cc2c(cc1F)OC(F)(F)O2 (single isomer, unassigned) [Example 110] | B (RLU 3.5 μM-5.0 μM)
